Measurements reported in PubChem BioAssay (NCI).
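All cell lines were grown in 96-well plates and treated with compound for 48 hours. Abbreviation: GI50, concentration required for 50% inhibition of growth. TGI: concentration producing complete growth inhibition.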

Experiments:
Assay in all cases: NCI-60 cell line screen, 48 h
[1] = tested on: 786-0 renal
[2] = tested on: A498 renal
[3] = tested on: A549 NSCLC
[4] = tested on: ACHN renal
[5] = tested on: BT-549 breast
[6] = tested on: CAKI-1 renal
[7] = tested on: CCRF-CEM leukemia
[8] = tested on: COLO 205 colon
[9] = tested on: DU-145 prostate
[10] = tested on: EKVX NSCLC
[11] = tested on: HCC-2998 colon
[12] = tested on: HCT-15 colon
[13] = tested on: HL-60(TB) leukemia
[14] = tested on: HOP-62 NSCLC
[15] = tested on: HOP-92 NSCLC
[16] = tested on: HS 578T breast
[17] = tested on: HT29 colon
[18] = tested on: IGROV1 ovarian
[19] = tested on: K-562 leukemia
[20] = tested on: M14 melanoma
[21] = tested on: MALME-3M melanoma
[22] = tested on: MCF7 breast
[23] = tested on: MDA-MB-231 breast
[24] = tested on: MOLT-4 leukemia
[25] = tested on: NCI-H226 lung
[26] = tested on: NCI-H460 lung
[27] = tested on: NCI/ADR-RES ovarian
[28] = tested on: OVCAR-3 ovarian
[29] = tested on: OVCAR-4 ovarian
[30] = tested on: OVCAR-5 ovarian
[31] = tested on: PC-3 prostate
[32] = tested on: RPMI-8226 leukemia
[33] = tested on: RXF 393 renal
[34] = tested on: SF-268 CNS
[35] = tested on: SF-295 CNS
[36] = tested on: SF-539 CNS
[37] = tested on: SK-MEL-2 melanoma
[38] = tested on: SK-MEL-28 melanoma
[39] = tested on: SK-MEL-5 melanoma
[40] = tested on: SK-OV-3 ovarian
[41] = tested on: SN12C renal
[42] = tested on: SNB-19 CNS
[43] = tested on: SNB-75 CNS
[44] = tested on: SR leukemia
[45] = tested on: SW-620 colon
[46] = tested on: T-47D breast
[47] = tested on: TK-10 renal
[48] = tested on: U251 CNS
[49] = tested on: UACC-257 melanoma
[50] = tested on: UACC-62 melanoma
[51] = tested on: UO-31 renal

With COc1ccc2[nH]cc(-c3csc4nc(-c5ccccc5)cn34)c2c1 the GI50 [1] was 599 nM, the TGI [1] was over 19900 nM and the GI50 [2] was 3730 nM. The GI50 [3] was 891 nM, the TGI [3] was over 88400 nM and the GI50 [4] was 612 nM. For the same molecule, the TGI [4] was 20600 nM, the GI50 [5] was 508 nM and the TGI [5] was 4800 nM. It also gave a GI50 [6] of 404 nM, a TGI [6] of 12100 nM and a GI50 [7] of 248 nM. It also gave a TGI [7] of over 100000 nM, a GI50 [8] of 334 nM and a TGI [8] of 1150 nM. The GI50 [9] was 576 nM, the TGI [9] was over 100000 nM and the GI50 [10] was 804 nM. It also gave a TGI [10] of over 100000 nM, a GI50 [11] of 602 nM and a TGI [11] of 3750 nM. The GI50 [12] was 242 nM, the TGI [12] was over 23100 nM and the GI50 [13] was 287 nM. For the same molecule, the TGI [13] was over 100000 nM, the GI50 [14] was 579 nM and the TGI [14] was 19100 nM. For the same molecule, the GI50 [15] was 424 nM, the TGI [15] was 5300 nM and the GI50 [16] was 328 nM. It also gave a TGI [16] of 10300 nM, a GI50 [17] of 324 nM and a TGI [17] of 1120 nM. The GI50 [18] was 477 nM, the TGI [18] was over 100000 nM and the GI50 [19] was 139 nM. For the same molecule, the TGI [19] was over 100000 nM, the GI50 [20] was 295 nM and the TGI [20] was over 100000 nM. It also gave a GI50 [21] of 492 nM, a TGI [21] of 31800 nM and a GI50 [22] of 276 nM. For the same molecule, the TGI [22] was over 100000 nM, the GI50 [23] was 524 nM and the TGI [23] was over 100000 nM. The GI50 [24] was 440 nM, the TGI [24] was over 51900 nM and the GI50 [25] was 947 nM. The TGI [25] was 5760 nM, the GI50 [26] was 374 nM and the TGI [26] was 2530 nM. It also gave a GI50 [27] of 252 nM, a TGI [27] of 1320 nM and a GI50 [28] of 355 nM. The TGI [28] was 3320 nM, the GI50 [29] was 2220 nM and the TGI [29] was over 100000 nM. It also gave a GI50 [30] of 709 nM, a TGI [30] of over 100000 nM and a GI50 [31] of 412 nM. It also gave a TGI [31] of over 100000 nM, a GI50 [32] of 416 nM and a TGI [32] of 3860 nM. It also gave a GI50 [33] of 553 nM, a TGI [33] of 4770 nM and a GI50 [34] of 823 nM. For the same molecule, the TGI [34] was over 80800 nM, the GI50 [35] was 395 nM and the TGI [35] was 4240 nM. For the same molecule, the GI50 [36] was 359 nM, the TGI [36] was 1830 nM and the GI50 [37] was 291 nM. The TGI [37] was 851 nM, the GI50 [38] was 724 nM and the TGI [38] was over 90200 nM. For the same molecule, the GI50 [39] was 407 nM, the TGI [39] was 3640 nM and the GI50 [40] was 489 nM. It also gave a TGI [40] of over 43900 nM, a GI50 [41] of 470 nM and a TGI [41] of over 100000 nM. It also gave a GI50 [42] of 616 nM, a TGI [42] of over 100000 nM and a GI50 [43] of 240 nM. The TGI [43] was 779 nM, the GI50 [44] was 66 nM and the TGI [44] was over 100000 nM. For the same molecule, the GI50 [45] was 360 nM, the TGI [45] was over 100000 nM and the GI50 [46] was 382 nM. It also gave a TGI [46] of over 100000 nM, a GI50 [47] of 6970 nM and a TGI [47] of 42600 nM. The GI50 [48] was 401 nM, the GI50 [49] was 525 nM and the TGI [49] was over 100000 nM. The GI50 [50] was 327 nM, the TGI [50] was 20800 nM and the GI50 [51] was 465 nM. For the same molecule, the TGI [51] was 32000 nM.
